# According to ChEMBL document CHEMBL3885881, “DrugMatrix”:
# Species: Rattus norvegicus
# Assay: DrugMatrix - Regimen: Daily Repeat
# Assay type: toxicity, organism-based, Sprague-Dawley
# Design: regimen Daily Repeat, gender Male, age 6-8 weeks
# Conditions: in vivo, po, […], route oral GAVAGE, vehicle 100 % WATER; for ALANINE AMINOTRANSFERASE / ALBUMIN / ALKALINE PHOSPHATASE / ASPARTATE AMINOTRANSFERASE / BLOOD UREA NITROGEN / CARBON DIOXIDE / CHLORIDE / CHOLESTEROL / CREATINE PHOSPHOKINASE / CREATININE / GLUCOSE / LACTATE DEHYDROGENASE / LIPASE / PHOSPHORUS / POTASSIUM / SODIUM / TOTAL BILIRUBIN / TOTAL PROTEIN / URIC ACID: tissue Plasma; for ABSOLUTE BASOPHIL / ABSOLUTE EOSINOPHIL / ABSOLUTE LYMPHOCYTE / ABSOLUTE MONOCYTE / ABSOLUTE SEGMENTED NEUTROPHIL / BASOPHIL / EOSINOPHIL / ERYTHROCYTE COUNT / HEMATOCRIT / HEMOGLOBIN / LEUKOCYTE COUNT / LYMPHOCYTE / MEAN CORPUSCULAR HEMOGLOBIN / MEAN CORPUSCULAR HEMOGLOBIN CONCENTRATION / MEAN CORPUSCULAR VOLUME / MONOCYTE / NEUTROPHIL / NUCLEATED RED BLOOD CELLS / PLATELET COUNT: tissue Blood
# [1] = 72 h, dose 0.025 mg/Kg, dose level Low, time 3 day
# [2] = 72 h, dose 0.25 mg/Kg, dose level High, time 3 day
# [3] = 120 h, dose 0.025 mg/Kg, dose level Low, time 5 day
# [4] = 120 h, dose 0.25 mg/Kg, dose level High, time 5 day
compound,measurement,setting,value
C[C@@H]1C[C@@H]([C@H](O)CC2CC(=O)NC(=O)C2)C(=O)[C@@H](C)C1 [CYCLOHEXIMIDE],ALANINE AMINOTRANSFERASE,[1],59.67 u/L
same,ALBUMIN,[1],4.1 G/DL
same,ALKALINE PHOSPHATASE,[1],369.67 u/L
same,ASPARTATE AMINOTRANSFERASE,[1],107.33 u/L
same,BLOOD UREA NITROGEN,[1],15.67 mg/dL
same,CARBON DIOXIDE,[1],31 mmol/L
same,CHLORIDE,[1],102 MEQ/L
same,CHOLESTEROL,[1],69 mg/dL
same,CREATINE PHOSPHOKINASE,[1],1055 u/L
same,CREATININE,[1],0.22 mg/dL
same,GLUCOSE,[1],164 mg/dL
same,LACTATE DEHYDROGENASE,[1],240.33 u/L
same,LIPASE,[1],9 u/L
same,PHOSPHORUS,[1],12.27 mg/dL
same,POTASSIUM,[1],6.52 MEQ/L
same,SODIUM,[1],142.17 MEQ/L
same,TOTAL BILIRUBIN,[1],0.23 mg/dL
same,TOTAL PROTEIN,[1],5.63 G/DL
same,URIC ACID,[1],1.8 mg/dL
same,ALANINE AMINOTRANSFERASE,[2],45 u/L
same,ALBUMIN,[2],3.43 G/DL
same,ALKALINE PHOSPHATASE,[2],376.67 u/L
same,ASPARTATE AMINOTRANSFERASE,[2],77 u/L
same,BLOOD UREA NITROGEN,[2],14.33 mg/dL
same,CARBON DIOXIDE,[2],34.33 mmol/L
same,CHLORIDE,[2],101.33 MEQ/L
same,CHOLESTEROL,[2],48.67 mg/dL
same,CREATINE PHOSPHOKINASE,[2],345.33 u/L
same,CREATININE,[2],0.17 mg/dL
same,GLUCOSE,[2],154.33 mg/dL
same,LACTATE DEHYDROGENASE,[2],99 u/L
same,LIPASE,[2],8 u/L
same,PHOSPHORUS,[2],12.1 mg/dL
same,POTASSIUM,[2],7.04 MEQ/L
same,SODIUM,[2],141.27 MEQ/L
same,TOTAL BILIRUBIN,[2],0.23 mg/dL
same,TOTAL PROTEIN,[2],4.67 G/DL
same,URIC ACID,[2],1.33 mg/dL
same,ABSOLUTE BASOPHIL,[3],0 CELLS/uL
same,ABSOLUTE EOSINOPHIL,[3],0 CELLS/uL
same,ABSOLUTE LYMPHOCYTE,[3],7936.67 CELLS/uL
same,ABSOLUTE MONOCYTE,[3],68.67 CELLS/uL
same,ABSOLUTE SEGMENTED NEUTROPHIL,[3],628 CELLS/uL
same,BASOPHIL,[3],0%
same,EOSINOPHIL,[3],0%
same,ERYTHROCYTE COUNT,[3],5.73 x10E6/uL
same,HEMATOCRIT,[3],34.33%
same,HEMOGLOBIN,[3],13.1 G/DL
same,LEUKOCYTE COUNT,[3],8.63 x10E3/uL
same,LYMPHOCYTE,[3],91.67%
same,MEAN CORPUSCULAR HEMOGLOBIN,[3],22.9 pg
same,MEAN CORPUSCULAR HEMOGLOBIN CONCENTRATION,[3],38.13 G/DL
same,MEAN CORPUSCULAR VOLUME,[3],60.1 fL
same,MONOCYTE,[3],1%
same,NEUTROPHIL,[3],7.33%
same,NUCLEATED RED BLOOD CELLS,[3],0 /100WBC
same,PLATELET COUNT,[3],1317.33 x10E3/uL
same,ABSOLUTE BASOPHIL,[4],0 CELLS/uL
same,ABSOLUTE EOSINOPHIL,[4],26.67 CELLS/uL
same,ABSOLUTE LYMPHOCYTE,[4],7410 CELLS/uL
same,ABSOLUTE MONOCYTE,[4],139.67 CELLS/uL
same,ABSOLUTE SEGMENTED NEUTROPHIL,[4],1057 CELLS/uL
same,BASOPHIL,[4],0%
same,EOSINOPHIL,[4],0.33%
same,ERYTHROCYTE COUNT,[4],5.35 x10E6/uL
same,HEMATOCRIT,[4],32.87%
same,HEMOGLOBIN,[4],12.77 G/DL
same,LEUKOCYTE COUNT,[4],8.63 x10E3/uL
same,LYMPHOCYTE,[4],85%
same,MEAN CORPUSCULAR HEMOGLOBIN,[4],23.83 pg
same,MEAN CORPUSCULAR HEMOGLOBIN CONCENTRATION,[4],38.8 G/DL
same,MEAN CORPUSCULAR VOLUME,[4],61.47 fL
same,MONOCYTE,[4],1.67%
same,NEUTROPHIL,[4],13%
same,NUCLEATED RED BLOOD CELLS,[4],0 /100WBC
same,PLATELET COUNT,[4],1213 x10E3/uL
same,ALANINE AMINOTRANSFERASE,[3],45.33 u/L
same,ALBUMIN,[3],4.03 G/DL
same,ALKALINE PHOSPHATASE,[3],343 u/L
same,ASPARTATE AMINOTRANSFERASE,[3],78 u/L
same,BLOOD UREA NITROGEN,[3],15.33 mg/dL
same,CARBON DIOXIDE,[3],33.33 mmol/L
same,CHLORIDE,[3],102.33 MEQ/L
same,CHOLESTEROL,[3],68.67 mg/dL
same,CREATINE PHOSPHOKINASE,[3],249.67 u/L
same,CREATININE,[3],0.16 mg/dL
same,GLUCOSE,[3],141 mg/dL
same,LACTATE DEHYDROGENASE,[3],124.33 u/L
same,LIPASE,[3],9 u/L
same,PHOSPHORUS,[3],11.4 mg/dL
same,POTASSIUM,[3],5.87 MEQ/L
same,SODIUM,[3],146.43 MEQ/L
same,TOTAL BILIRUBIN,[3],0.1 mg/dL
same,TOTAL PROTEIN,[3],5.83 G/DL
same,URIC ACID,[3],0.73 mg/dL
same,ALANINE AMINOTRANSFERASE,[4],54.67 u/L
same,ALBUMIN,[4],3.6 G/DL
same,ALKALINE PHOSPHATASE,[4],291.33 u/L
same,ASPARTATE AMINOTRANSFERASE,[4],78 u/L
same,BLOOD UREA NITROGEN,[4],16 mg/dL
same,CARBON DIOXIDE,[4],35.33 mmol/L
same,CHLORIDE,[4],101.5 MEQ/L
same,CHOLESTEROL,[4],65 mg/dL
same,CREATINE PHOSPHOKINASE,[4],253.67 u/L
same,CREATININE,[4],0.15 mg/dL
same,GLUCOSE,[4],135 mg/dL
same,LACTATE DEHYDROGENASE,[4],109 u/L
same,LIPASE,[4],9 u/L
same,PHOSPHORUS,[4],11.9 mg/dL
same,POTASSIUM,[4],6.52 MEQ/L
same,SODIUM,[4],143.55 MEQ/L
same,TOTAL BILIRUBIN,[4],0.1 mg/dL
same,TOTAL PROTEIN,[4],5.03 G/DL
same,URIC ACID,[4],0.73 mg/dL
